Molecules are shown by their SMILES.

One assay deals with MDA-MB-231. The assay can be described thus: Cancer activity screen (MTT cell survival), MDA-MB-231. It counts as cell-based. As to conditions: Homo sapiens, second table.
In turn, `C=CCn1c(=O)/c(=C2\Sc3c(F)cccc3N2C)s/c1=C\c1ccncc1` displayed an IC50 of 3.07 ± 0.73 µM.

`COC(=O)Cn1c(=O)/c(=C2\Sc3ccccc3N2C)s/c1=C\c1cccc[n+]1C`: the IC50 amounted to 16.5 ± 1.05 µM.

For the compound `COC(=O)Cn1c(=O)/c(=C2\Sc3ccccc3N2C)s/c1=C\c1scc[n+]1Cc1ccccc1`, the IC50 came out at 0.87 ± 0.14 µM. Regarding `COC(=O)Cn1c(=O)/c(=C2\Sc3cc(C(F)(F)F)ccc3N2C)s/c1=C\c1nccs1`, the IC50 was over 30 µM. Still for that read-out and setting: next, `COC(=O)Cn1c(=O)/c(=C2\Sc3cc(C(F)(F)F)ccc3N2C)s/c1=C\c1ccccn1`: over 30 µM; `CCn1c(=O)/c(=C2\Sc3cc(OC(F)(F)F)ccc3N2C)s/c1=C\c1ccccn1`: 4.4 ± 0.5 µM. In the case of `COC(=O)Cn1c(=O)/c(=C2\Sc3ccccc3N2C)s/c1=C\c1nccs1`, the IC50 was over 30 µM.

As to `CCN1C(=O)/C(=C2\Sc3ccccc3N2C)S/C1=N\c1ccccc1`, the IC50 is over 30 µM. `CCN1C(=O)/C(=C2\Sc3cccc(F)c3N2C)S/C1=N\c1ccccc1` came in with an IC50 of over 30 µM. The compound `CCN1C(=O)/C(=C2\Sc3c(F)cccc3N2C)S/C1=N\c1ccccc1` had an IC50 of 17.7 ± 2.85 µM. With `CCN1C(=O)/C(=C2\Sc3cc(F)ccc3N2C)S/C1=N\c1ccccc1`, the IC50 is over 30 µM. Same read-out and setting: next, `CCn1c(=O)/c(=C2\Sc3ccccc3N2C)s/c1=C\c1cc[n+](C)cc1`: 3.01 ± 0.26 µM; `CCN1C(=O)/C(=C2\Sc3cc(C(F)(F)F)ccc3N2C)S/C1=N\c1ccccc1`: 16.2 ± 1.12 µM; `CCN1C(=O)/C(=C2\Sc3ccc(F)cc3N2C)S/C1=N\c1ccccc1`: 9.18 ± 1.04 µM. Still for that read-out and setting: next, `CCn1c(=O)/c(=C2\Sc3cc(Cl)ccc3N2C)s/c1=C\c1scc[n+]1Cc1ccsc1`: 0.11 ± 0.01 µM; `CCn1c(=O)/c(=C2\Sc3cc(C#N)ccc3N2C)s/c1=C\c1cccc[n+]1Cc1ccccc1`: 1.4 ± 0.1 µM. `CCn1c(=O)/c(=C2\Sc3c(ccc(F)c3F)N2C)s/c1=C\c1scc[n+]1C` registered an IC50 of 5.6 ± 0.6 µM.

Turning to `CCn1c(=O)/c(=C2\Sc3cc(C(F)(F)F)ccc3N2C)s/c1=C\c1ccncc1`, the IC50 was over 20 µM. For `CCn1c(=O)/c(=C2\Sc3cc(F)ccc3N2C)s/c1=C\c1scc[n+]1Cc1ccc(C(=O)OC)o1`, the IC50 stood at 3.05 ± 0.42 µM.

In the case of `CCn1c(=O)/c(=C2\Sc3c(ccc(F)c3F)N2C)s/c1=C\c1scc[n+]1Cc1ccccc1`, the IC50 came to 0.24 ± 0.01 µM. Compound `COC(=O)Cn1c(=O)/c(=C2\Sc3cc(F)ccc3N2C)s/c1=C\c1ccncc1` yielded an IC50 of 2 ± 0.2 µM. On the same count and under the same terms, next, `CCn1c(=O)/c(=C2\Sc3c(ccc(F)c3F)N2C)s/c1=C\c1cccc[n+]1Cc1ccsc1C(=O)OC`: 1.95 ± 0.27 µM; `COC(=O)Cn1c(=O)/c(=C2\Sc3cc(C(F)(F)F)ccc3N2C)s/c1=C\c1cccc[n+]1C`: over 20 µM. Regarding `CCn1c(=O)/c(=C2\Sc3ccc(Cl)cc3N2C)s/c1=C\c1cccc[n+]1Cc1ccccc1`, the IC50 turned out to be 0.34 ± 0.03 µM.

In another assay the test system is MEF (C57BL/6). The assay can be described thus: Cell survival, MEF. It counts as cell-based. As to conditions: Mus musculus; second table; read-out: IC50/μM MEF (C57BL/6).
Take `C=CCn1c(=O)/c(=C2\Sc3c(F)cccc3N2C)s/c1=C\c1ccncc1`: the IC50 is over 50 µM. `COC(=O)Cn1c(=O)/c(=C2\Sc3ccccc3N2C)s/c1=C\c1cccc[n+]1C`: the IC50 is over 50 µM. Take `COC(=O)Cn1c(=O)/c(=C2\Sc3ccccc3N2C)s/c1=C\c1scc[n+]1Cc1ccccc1`: the IC50 is over 50 µM. For `COC(=O)Cn1c(=O)/c(=C2\Sc3cc(C(F)(F)F)ccc3N2C)s/c1=C\c1nccs1`, the IC50 is over 50 µM. Take `COC(=O)Cn1c(=O)/c(=C2\Sc3cc(C(F)(F)F)ccc3N2C)s/c1=C\c1ccccn1`: the IC50 is over 50 µM. The same measure, in the same setting: then `CCn1c(=O)/c(=C2\Sc3cc(OC(F)(F)F)ccc3N2C)s/c1=C\c1ccccn1`, with over 50 µM. Still for that read-out and setting: then `COC(=O)Cn1c(=O)/c(=C2\Sc3ccccc3N2C)s/c1=C\c1nccs1`, with over 50 µM; and `CCN1C(=O)/C(=C2\Sc3ccccc3N2C)S/C1=N\c1ccccc1`, with over 50 µM; and `COC(=O)Cn1c(=O)/c(=C2\Sc3ccccc3N2C)s/c1=C\c1ccccn1`, with over 50 µM. On the same count and under the same terms, then `CCN1C(=O)/C(=C2\Sc3cccc(F)c3N2C)S/C1=N\c1ccccc1`, with over 50 µM; and `CCN1C(=O)/C(=C2\Sc3c(F)cccc3N2C)S/C1=N\c1ccccc1`, with over 50 µM. Consider `CCN1C(=O)/C(=C2\Sc3cc(F)ccc3N2C)S/C1=N\c1ccccc1`, for which the IC50 was over 50 µM. `CCn1c(=O)/c(=C2\Sc3ccccc3N2C)s/c1=C\c1cc[n+](C)cc1`: the IC50 is over 50 µM. On the same count and under the same terms, then `CCN1C(=O)/C(=C2\Sc3cc(C(F)(F)F)ccc3N2C)S/C1=N\c1ccccc1`, with over 50 µM.

Values taken from patent US9808448B2, “Pharmaceutical compounds and use of same in cancer and tauopathies” (THE REGENTS OF THE UNIVERSITY OF MICHIGAN, priority 2013, dated 2017).
